Values quoted from earlier work in patent US6569898B2, “Use of (Z) -2-cyano-3-hydroxy-but-2-enoic acid-(4′-trifluoromethylphenyl)-amide for treating multiple sclerosis” (Aventis Pharmaceuticals Inc., priority 2001, dated 2003).

How the values were obtained:
[1] = system: immune cells and cell lines
[2] = molecular target: dihydrooate dehydrogenase (Homo sapiens, UniProt Q02127); conditions: enzyme essential for the synthesis of pyrimidines
Sequence of dihydrooate dehydrogenase (Q02127 whole entry): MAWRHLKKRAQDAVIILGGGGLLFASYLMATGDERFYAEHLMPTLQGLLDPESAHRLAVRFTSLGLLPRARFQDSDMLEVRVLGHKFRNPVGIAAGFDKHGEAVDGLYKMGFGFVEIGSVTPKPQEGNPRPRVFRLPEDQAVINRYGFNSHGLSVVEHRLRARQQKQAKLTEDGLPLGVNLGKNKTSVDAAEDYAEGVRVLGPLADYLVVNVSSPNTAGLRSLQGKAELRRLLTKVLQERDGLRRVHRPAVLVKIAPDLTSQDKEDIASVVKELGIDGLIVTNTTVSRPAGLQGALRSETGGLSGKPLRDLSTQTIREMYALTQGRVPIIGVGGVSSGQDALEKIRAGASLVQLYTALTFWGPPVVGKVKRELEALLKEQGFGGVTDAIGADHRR

inhibition of the enzyme dihydrooate dehydrogenase [2]: inhibits
Compound: C/C(O)=C(\C#N)C(=O)Nc1ccc(C(F)(F)F)cc1 [Teriflunomide, (Z)-2-cyano-3-hydroxy-but-2-enoic acid-(4′-trifluoromethylphenyl)-amide]
antiproliferative effects on a wide variety of immune cells and cell lines [1]: antiproliferative effects
